Key:
[1] = test system: REV-ERB LBD interaction with NCoR ID motif peptides; conditions: REV-ERBs; cited from earlier work
From the text: The iron-centered porphyrin heme has been identified as the endogenous REV-ERB ligand ([7], [8]). […] Structural data would help establish that heme directly produces a REV-ERB LBD conformation that enhances NCoR binding. However, published biochemical and structural studies contradict cell-based evidence ([7]–[11]).

[2] = test system: REV-ERB LBD interaction with NCoR ID motif peptides; experiment: fluorescence-based peptide binding assays; conditions: fig. S2A; authors attribute it to heme quenching artifact
REV-ERBβ LBD / NCoR RID = experiment: Chemical cross-linking mass spectrometry (XL-MS); format: binding; conditions: LBD:RID complexes ± heme; DSSO; significant at Padj < 0.05
Experimental: (§1) Apo or heme-bound REV-ERBβ LBD and NCoR RID protein samples were cross-linked in Hepes gel filtration buffer [25 mM Hepes (pH 7.5) at room temperature, 50 mM NaCl, and 0.5 mM TCEP]. Non–cross-linked negative controls were generated using the same procedure without the addition of DSSO (Thermo Fisher Scientific). Samples included 4 μM apo LBD with or without 2 μM RID and 4 μM heme-bound LBD with or without 2 μM RID; complexes were preincubated 1 hour on ice. Reactions were initiated by spiking DSSO in DMSO at a final concentration of 600 μM in 50-μl solutions. The final molar ratio of cross-linker:protein was 100:1. The reactions were incubated at 25°C for 45 min before being quenched by the addition of tris (pH 8.0) to a final concentration of 50 mM. Each cross-link reaction was done in triplicate, and the reaction replicates were pooled after quenching. Samples (10 μl) were loaded for SDS-PAGE analysis with Coomassie staining to confirm the presence of cross-linked protein. The remaining cross-linked and non–cross-linked samples were then acetone-precipitated at −20°C overnight, and the protein was pelleted by centrifugation at 16,000 relative centrifugal force (rcf) for 5 min at 4°C. After decanting, the pellets were dried for 15 min at room temperature before being resuspended in 12.5 μl of resuspension buffer [50 mM ammonium bicarbonate and 8 M urea (pH 8.0)]. […]

REV-ERBβ LBD = experiment: DSSO chemical cross-linking, SDS-PAGE; format: binding, human; conditions: LBD-only samples, 600 μM DSSO, 25°C, 45 min
Experimental: To further support this stoichiometry, we performed chemical cross-linking analysis of apo or heme-bound LBD ± RID using DSSO (disuccinimidyl sulfoxide), a cross-linker that cross-links lysine residues as well as serine, threonine, and tyrosine residues (fig. S9, A and B).
as §1, with “protein.” for “protein. The remaining cross-linked and non–cross-linked samples were then acetone-precipitated at −20°C overnight, and the protein was pelleted by centrifugation at 16,000 relative centrifugal force (rcf) for 5 min at 4°C. After decanting, the pellets were dried for 15 min at room temperature before being resuspended in 12.5 μl of resuspension buffer [50 mM ammonium bicarbonate and 8 M urea (pH 8.0)].”

[3] = heme fluorescence quenching; conditions: fig. S2C

Structure (SMILES): C=CC1=C(C)c2cc3[n-]c(cc4[n-]c(cc5nc(cc1n2)C(C)=C5C=C)c(C)c4CCC(=O)O)c(CCC(=O)O)c3C.[Fe+2] [heme]
- displacement of NCoR ID peptides in fluorescence-based biochemical assays [1]: dose-dependently displace NCoR interaction domain (ID) peptides from the REV-ERBs
- effect of heme on ID peptide interaction in fluorescence-based assays [2]: dose-dependently reduces REV-ERB LBD interaction with peptides derived from NCoR ID motifs
- effect of heme on cross-links (REV-ERBβ LBD / NCoR RID): reduced LBD-LBD and LBD-RID cross-links, particularly for residues in the AF-2 surface
- LBD dimer band by cross-linking SDS-PAGE, effect of heme (REV-ERBβ LBD): weak dimer band in LBD-only samples that was unchanged by heme
- heme quenching of fluorophores [3]: quenches fluorophores across a broad range of emissions

Reference: paper PMC7840129, “Structural basis for heme-dependent NCoR binding to the transcriptional repressor REV-ERBβ” (Science Advances, 2021)
